Patent publication US20250000847A1, “TREATMENT OF NEURODEGENERATIVE DISEASES WITH HDAC INHIBITORS” (CASE WESTERN RESERVE UNIVERSITY, priority 2021, published 2025)

Experiments:
spinal cord LPC lesion = test: Lysolecithin (LPC) injection model of focal tissue damage; format: in vivo, mouse
Procedure: This was based on a toxin-based model of CNS tissue damage, where lysolecithin (lysophosphatidylcholine (LPC)) is injected into the dorsal column of the spinal cord leading to cell death, demyelination, and axonal damage at 4 days post lesion (dpl).
Focal tissue damage in the spinal cord was induced by the injection of 1% LPC solution. 10-12 week old C57BL/6 female mice were anesthetized using isoflurane and a T10 laminectomy was performed. 1 μL of 1% LPC was infused into the dorsal column at a rate of […]. The animals were euthanized at day twelve after the laminectomy (n=6-9 per group). […] Mice were then processed for immunohistochemistry or electron microscopy.
Samples were processed as previously described (Najm et al., Nat Methods 8, 957-962, doi:10.1038/nmeth.1712 (2011)). Briefly, Mice were perfused with 4% PFA, 2% glutaraldehyde, and 0.1 M sodium cacodylate. Spinal cords were extracted and samples were osmicated, stained en bloc with uranyl acetate and embedded in EMbed 812, an Epon-812 substitute (EMS). Thin sections were cut, carbon-coated and imaged either on JEOL JEM-1200-EX electron microscope or a T12 electron microscope (FEI).

Gbp2 and Psmb8 = test: Gene expression in cultured human astrocytes (qPCR); format: cell-based
Procedure: Human induced pluripotent stem cells (iPSCs) were cultured to differentiate into astrocytes as described by Perriot et al. (2018). In short, iPSC colonies were placed in neural induction media for 10 days until neural rosettes could be picked, dissociated, and plated in a glial expansion medium. These cells were allowed to proliferate and become a homogenous population of glial progenitor cells (GPCs) over eight passages on poly-L-ornithine and laminin-coated plates. These GPCs were then passaged onto a Matrigel-coated plate to culture in an astrocyte induction media for two weeks, which was followed by culturing for another four weeks in an astrocyte maturation medium.
Cells were lysed in TRIzol and total RNA was extracted with phenol-chloroform followed by spin columns from the RNEasy Mini Kit (74104, QIAGEN). RNA quality and quantity was determined using a NanoDrop spectrophotometer. The RNA was then reverse transcribed using the iScript cDNA synthesis kit (1708891, Bio-Rad) according to the manufacturer's instructions. […]

CCL5 = CCL5 secretion by reactive astrocytes (ELISA); format: cell-based, mouse; conditions: for reduction of CCL5 secretion: compared to vehicle control
Procedure: Astrocytes were plated and treated exactly as described for the antigen cross presentation assay. However, after 24 hrs of incubation with either reactive astrocyte driving factors alone or with HDAC inhibitor treatment, conditioned media from the cells was collected and assayed for CCL5 using a commercially available colorimetric ELISA kit (RnD Cat #: DY478-05). Data was then fit to a standard four parameter logistic (4PL) curve and presented as pg/mL/cell, normalized to reactive astrocytes plus DMSO vehicle (FIG. 4).
Media was collected from mouse P2 primary astrocytes that had been cultured for 24 hrs in the presence of cytokines with and without HDAC3 inhibitors and compared to media from astrocytes not treated with cytokines. The concentration of CCL5, a cytokine secreted by reactive astrocytes, was measured in each of the respective media conditions based on the direct adsorption of CCL5 to a pre-coated capture antibody on the ELISA assay plate. The ELISA sandwich assay was performed according to the manufacturer's instructions (DY478-05, R&D Systems). Relative CCL5 concentration were measured based on absorbance measured by a plate reader.

other HDAC = conditions: at up to 15 μM; cited from earlier work
RelA/P65 = test: Nuclear RelA/P65 in reactive astrocytes; format: cell-based, mouse
Procedure: For immunocytochemistry, cells were fixed with ice-cold 4% PFA for 15 minutes at room temperature, washed three times with PBS, blocked and permeabilized with 10% donkey serum and 0.1% Triton X-100 in PBS for 1 hr, and then stained with primary overnight followed by three washes with PBS, and then 1 hr incubation with Alexaflour secondary antibodies and DAPI. Stained cells were imaged using the PerkinElmer Operetta CLS High-Content Analysis System and analyzed using automated scripts in PerkinElmer Columbus Image Analysis software. Primary antibodies used were GBP2 (ProteinTech, 11854-1-AP), vimentin (BioLegend, 919101), RelA/P65 (Cell Signaling Tech, 6956), MBP (Abeam, AB7349).

[1] = system: NF-κB (RelA/P65) transcriptional activity; test: NF-κB Jurkat reporter assay; format: cell-based
Excerpt: NF-κB luciferase reporter Jurkat T-cells were used to measure NF-κB transcriptional activity in response to reactive astrocyte driving cytokines with or HDAC inhibitors and other validated hits from the primary screen. NFκB luciferase reporter Jurkat T-Cells (BPS Biosciences 60651) were purchased from BPS Bioscience. Within this cell line, the firefly luciferase gene is controlled by four copies of an NF-κB response element located upstream of the TATA promoter. Following activation by an external stimulant, endogenous NF-κB transcription factors bound to the DNA response elements to induce transcription of the luciferase gene.

[2] = system: genes associated with damaging and beneficial reactive astrocytes; test: Bulk RNAseq of reactive astrocytes; format: cell-based, mouse
Excerpt: Total RNA was extracted from resting and reactive astrocytes using the same procedure as described for qPCR and sent to Novogene for mRNA Sequencing.
For gene expression analysis, reads were mapped to the mm10 genome using kallisto 0.46.1 (Bray et al., Nat Biotechnol 34, 525-527, doi:10.1038/nbt.3519 (2016)). Transcripts were summarized to the gene level with tximport (Soneson et al., F1OORes 4, 1521, doi:10.12688/fl000research.7563.2 (2015). Normalized expression and differentiation gene expression was then generated using DESEQ2 (Love et al., Genome Biol 15, 550, doi:10.1186/s13059-014-0550-8 (2014)).

[3] = system: retinal ganglion cells (RGCs); test: Optic nerve crush model of neurodegeneration; format: in vivo, mouse; conditions: 10 mg/kg daily i.p. for 14 days after optic nerve crush
Excerpt: The optic nerve of adult mice was surgically accessed and crushed. […] 14 days after optic nerve crush surgery, retina were harvested and stained for the RGC marker BRN3A, and the pan neuronal maker BIII-tubulin.

[4] = 10 mg/kg daily, lesion at 12 dpl

Nc1cc(F)ccc1NC(=O)/C=C/c1cnn(C/C=C/c2ccccc2)c1 [RGFP966]
tissue repair (spinal cord LPC lesion; 10 mg/kg daily from −1 dpl, at 12 dpl, compared to vehicle-treated LPC mice): accelerated tissue repair | axons/mm^2 (spinal cord LPC lesion; [4]): increased | percentage of axons remyelinated (spinal cord LPC lesion; [4]): increased | total axons in lesions (spinal cord LPC lesion; [4]): increased | total remyelinated (spinal cord LPC lesion; [4]): increased | expression of genes associated with DRAs, Gbp2 and Psmb8 (Gbp2 and Psmb8): decreased expression | reduction of CCL5 secretion (CCL5; 2.5 μM): about 70% | reduction of CCL5 secretion (CCL5; 5.0 μM): more than 80% | secretion of CCL5 by reactive astrocytes (CCL5; FIG. 4): significantly decrease | inhibition of other HDAC isozymes (other HDAC): no inhibition | nuclear RelA/P65 (RelA/P65): decreases | RelA/P65 driven transcription (transcriptional activity) [1]: decreases | expression of genes associated with beneficial reactive astrocytes (BRA) [2]: increasing expression | expression of genes associated with damaging reactive astrocytes (DRA) [2]: decreased expression | protection of retinal ganglion cells (RGCs) from neurodegeneration [3]: protects
